Values quoted from earlier work in PMC3157551 (Bioconjugate chemistry, 2011).

avidin: avidin (Pierce-Thermo), 128 amino acid biotin-binding protein
dissociation half-time of biotin from avidin: 89 days
